Data: EP0201732A2, “Beta-2-mimetics of the 4-aminophenylethanolamine type for the prevention of peptic ulcers” (BOEHRINGER INGELHEIM VETMEDICA GMBH, priority 1985, dated 1986)
Where a name gives a salt, the structure may show the parent alone.

Columns and labels:
[1] = Feed consumption and final weight of the treated calves against the control group; assay type: in vivo, Kälber
Excerpt: (§1) Beispielsweise wurde die Verbindung 1-(4-Amino-3,5,-dichforphenyl)-2-tertbutyfamina-äthanol- hydrochlorid in einer Tagesdosis von 2 mcg/kg Körpergewicht, verteilt auf 2 Dosen, welche dem Futter beigemischt war, 32 bei Beginn der Behandlung ca. 70 Tage alten und ca. 100 kg schweren Kälbern im Vergleich zu einer gleichgroßen Kontrollgruppe fortgesetzt verabreicht.
(§2) 14 Tage vor dem Schlachttermin wurde die Behandlung beendet.
Außerdem wies bei einem Futterverbrauch der Versuchsgruppe von 344,3 kg pro Tier bzw. von 343,7 kg pro Tier der Kontrollgruppe die erstere eine um ca. 10 kg höhere Endgewicht pro Tier auf. Bei einem annähernd gleichen Futterverbrauch pro Tier bedeutet dies eine Steigerung der Fleischproduktion von ca. 320 kg in der Versuchsgruppe.

[2] = Acute oral toxicity (LD50); settings: mouse, in vivo, Maus, p.o.
Excerpt: (§3) Die verabreichte Substanz ist gut verträglich.

[3] = Tolerability in the treated calves: side effects, haematology and serum enzymes (random samples); assay type: in vivo, Kälber
Excerpt: as §1, §3

[4] = test system: peptische Labmagenulcera; experiment: Prevention of peptic abomasal ulcers in fattening calves, compound given as feed additive; abomasa dissected after slaughter; assay type: in vivo, Kälber; settings: 2 mcg/kg body weight per day in 2 doses mixed into feed; 32 calves, ca. 70 days old and ca. 100 kg at start; treatment ended 14 days before slaughter; control group showed ulcers and haemorrhagic erosions
Excerpt: as §1, §2
Nach der Schlachtung zeigten sich bei der Sektion der Labmägen der Kontrollgruppe Läsionen der Labmagenschleimhaut in folgenden verschiedenen Stadien: • 3 Tiere hatten je ein Ulcus bis zu einem Durchmesser von 20 mm • 4 Tiere hatten mehrere Ulcera mit einem Durchmesser von 2 bis 15 mm
Weitere Tiere wiesen hämorrhagische Erosionen auf den Magenschleimhautfalten auf.

[5] = test system: Magensäuresekretion; settings: rat; doses higher by a factor of 100 than needed for the broncholytic effect; Arzneimittelforschung 26, 1404-1420 (1976); cited from earlier work
[6] = test system: peptische Labmagenulcera; settings: dose not given

## CC(C)(C)NCC(O)c1cc(Cl)c(N)c(Cl)c1 (centres unmarked) [1-(4-Amino-3,5-dichlor-phenyl)-2-tert.butylamino-äthanol-hydrochlorid]
[1]; test group versus control group, 2 mcg/kg per day in feed
  höhere Endgewicht pro Tier: ca. 10 kg
[1]; whole test group (32 calves) at nearly equal feed consumption per animal
  Steigerung der Fleischproduktion: ca. 320 kg
[2]
  LD50: 176 mg/kg
[3]; calves, 2 mcg/kg per day in feed
  Nebenwirkungen: keinerlei Nebenwrikungen
[3]; random samples, test group versus control group
  hämatologische Untersuchung und Enzyme SGOT, CPK, LDH und GLDH: keine signifikanten Unterschiede
[4]
  Läsionen der Labmagenschleimhaut: bei keinem Tier der Versuchsgruppe irgendwelche Läsionen der Labmagenschleimhaut feststellbar

## CC(C)(C)NCC(O)c1cc(Cl)c(N)c(Cl)c1 (centres unmarked) [1-(4-Amino-3,5-dichlor-phenyl)-2-tert.butylamino-äthanol]
[5]
  Hemmwirkung auf die Magensäuresekretion: eine Hemmwirkung auf die Magensäuresekretion

## CN/C(=N/CCSCc1nc[nH]c1C)NC#N [Cimetidine]
[6]
  Behandlungsversuch: erfolglos
